Measured values taken from PubChem BioAssay AID248 (DTP/NCI, 2004).
Inconclusive results and toxic doses are left out. No stated cut-off is given here; in the data, active means T/C of 150% or more; inactive means T/C below 125%.

Test system: L1210 leukemia ip in BDF1 mice, survival T/C
Experiment: NCI In Vivo Anticancer Drug Screen. Data for tumor model L1210 Leukemia (intraperitoneal) in B6D2F1 (BDF1) mice
Conditions: endpoint: mean survival time, higher = longer survival
Method in brief: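 Each compound was tested against a transplantable tumor grown in mice. The endpoint was survival, with treated animals benchmarked against vehicle controls as a simple ratio.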

[1] = dose: 100.0 mg/kg/injection, schedule: Q01DX001 (ip), vehicle: Klucel (hydroxypropylcellulose) (HPC)
[2] = dose: 200.0 mg/kg/injection, schedule: Q01DX001 (ip), vehicle: Klucel (hydroxypropylcellulose) (HPC)
[3] = dose: 50.0 mg/kg/injection, schedule: Q01DX001 (ip), vehicle: saline
[4] = dose: 100.0 mg/kg/injection, schedule: Q01DX001 (ip), vehicle: saline
[5] = dose: 200.0 mg/kg/injection, schedule: Q01DX001 (ip), vehicle: saline
[6] = dose: 400.0 mg/kg/injection, schedule: Q01DX001 (ip), vehicle: saline
[7] = dose: 100.0 mg/kg/injection, schedule: Q01DX001 (ip), vehicle: saline with Tween-80
[8] = dose: 200.0 mg/kg/injection, schedule: Q01DX001 (ip), vehicle: saline with Tween-80
[9] = dose: 400.0 mg/kg/injection, schedule: Q01DX001 (ip), vehicle: saline with Tween-80
[10] = dose: 100.0 mg/kg/injection, schedule: Q04DX003 (ip), vehicle: Klucel (hydroxypropylcellulose) (HPC)
[11] = dose: 200.0 mg/kg/injection, schedule: Q04DX003 (ip), vehicle: Klucel (hydroxypropylcellulose) (HPC)
[12] = dose: 400.0 mg/kg/injection, schedule: Q01DX001 (ip), vehicle: Klucel (hydroxypropylcellulose) (HPC)
[13] = dose: 400.0 mg/kg/injection, schedule: Q04DX003 (ip), vehicle: Klucel (hydroxypropylcellulose) (HPC)
[14] = dose: 25.0 mg/kg/injection, schedule: Q04DX002 (ip), vehicle: Klucel (hydroxypropylcellulose) (HPC)
[15] = dose: 50.0 mg/kg/injection, schedule: Q04DX002 (ip), vehicle: Klucel (hydroxypropylcellulose) (HPC)
[16] = dose: 100.0 mg/kg/injection, schedule: Q04DX002 (ip), vehicle: Klucel (hydroxypropylcellulose) (HPC)
[17] = dose: 200.0 mg/kg/injection, schedule: Q04DX002 (ip), vehicle: Klucel (hydroxypropylcellulose) (HPC)
[18] = dose: 400.0 mg/kg/injection, schedule: Q04DX002 (ip), vehicle: Klucel (hydroxypropylcellulose) (HPC)
[19] = dose: 100.0 mg/kg/injection, schedule: Q01DX009 (ip), vehicle: Klucel (hydroxypropylcellulose) (HPC)
[20] = dose: 200.0 mg/kg/injection, schedule: Q01DX009 (ip), vehicle: Klucel (hydroxypropylcellulose) (HPC)
[21] = dose: 400.0 mg/kg/injection, schedule: Q01DX009 (ip), vehicle: Klucel (hydroxypropylcellulose) (HPC)
[22] = dose: 100.0 mg/kg/injection, schedule: Q04DX003 (ip), vehicle: saline with Tween-80
[23] = dose: 200.0 mg/kg/injection, schedule: Q04DX003 (ip), vehicle: saline with Tween-80
[24] = dose: 400.0 mg/kg/injection, schedule: Q04DX003 (ip), vehicle: saline with Tween-80
[25] = dose: 100.0 mg/kg/injection, schedule: Q01DX001 (ip), vehicle: other
[26] = dose: 200.0 mg/kg/injection, schedule: Q01DX001 (ip), vehicle: other
[27] = dose: 100.0 mg/kg/injection, schedule: Q04DX003 (ip), vehicle: saline sonified
[28] = dose: 200.0 mg/kg/injection, schedule: Q04DX003 (ip), vehicle: saline sonified
[29] = dose: 400.0 mg/kg/injection, schedule: Q04DX003 (ip), vehicle: saline sonified

Measured: T/C

COc1ccc(C(=O)c2ccc([N+](=O)[O-])cc2)c(OC)c1
inactive: [1] 101 % of control | [2] 111 % of control

Cn1cnc(N)c1/C(N)=N/O
inactive: dose: 6.25 mg/kg/injection, schedule: Q01DX005 (ip), vehicle: saline 100 % of control | dose: 12.5 mg/kg/injection, schedule: Q01DX005 (ip), vehicle: saline 98 % of control | dose: 25.0 mg/kg/injection, schedule: Q01DX005 (ip), vehicle: saline 107 % of control | dose: 50.0 mg/kg/injection, schedule: Q01DX005 (ip), vehicle: saline 91 % of control

O=Cc1cccc(/C=N/Nc2nnc(N/N=C/c3cccc(C=O)c3)c3ccccc23)c1
inactive: [3] 98 % of control | [4] 98 % of control | [5] 90 % of control | [6] 93 % of control

CN(C(=O)Oc1ccccc1)c1ccc(S(=O)(=O)F)cc1
inactive: [7] 104 % of control | [8] 96 % of control | [9] 98 % of control

CS(C)=O.CS(C)=O.CS(C)=O.[Cl][Rh]([Cl])[Cl]
inactive: dose: 6.25 mg/kg/injection, schedule: Q01DX009 (ip), vehicle: saline 106 % of control | dose: 12.5 mg/kg/injection, schedule: Q01DX009 (ip), vehicle: saline 98 % of control | dose: 15.0 mg/kg/injection, schedule: Q01DX009 (ip), vehicle: saline 107 % of control | dose: 40.0 mg/kg/injection, schedule: Q01DX009 (ip), vehicle: saline 104 % of control | dose: 100.0 mg/kg/injection, schedule: Q04DX003 (ip), vehicle: saline 96 % of control | dose: 200.0 mg/kg/injection, schedule: Q04DX003 (ip), vehicle: saline 89 % of control

CN(C)c1ccc(/C=C(\C#N)c2nc3ccccc3[nH]2)cc1
inactive: [1] 96 % of control | [10] 91 % of control | [2] 99 % of control | [11] 94 % of control | [12] 96 % of control | [13] 93 % of control

O=c1[nH]cnc2ncn(Cc3ccccc3)c12
inactive: dose: 12.5 mg/kg/injection, schedule: Q04DX002 (ip), vehicle: Klucel (hydroxypropylcellulose) (HPC) 115 % of control | [14] 88 % of control | [15] 102 % of control

CN(Cc1cccc(Cl)c1)C(=O)Nc1ccccc1
inactive: [16] 110 % of control | [17] 110 % of control | [18] 107 % of control

CCSC(=O)n1nc(Cl)c2cc([N+](=O)[O-])ccc21
inactive: dose: 100.0 mg/kg/injection, schedule: Q01DX001 (ip), vehicle: carboxymethylcellulose (CMC) 93 % of control | dose: 200.0 mg/kg/injection, schedule: Q01DX001 (ip), vehicle: carboxymethylcellulose (CMC) 102 % of control | dose: 400.0 mg/kg/injection, schedule: Q01DX001 (ip), vehicle: carboxymethylcellulose (CMC) 93 % of control

COc1cc(Cl)ccc1NC(=O)Oc1ccc2ccccc2c1
inactive: [16] 108 % of control | [17] 90 % of control | [18] 104 % of control

COC(=O)C(CO)NC(c1ccccc1)(c1ccccc1)c1ccccc1 (stereo not drawn)
inactive: dose: 50.0 mg/kg/injection, schedule: Q01DX009 (ip), vehicle: saline 91 % of control | dose: 100.0 mg/kg/injection, schedule: Q01DX009 (ip), vehicle: saline 95 % of control | dose: 200.0 mg/kg/injection, schedule: Q01DX009 (ip), vehicle: saline 92 % of control | dose: 400.0 mg/kg/injection, schedule: Q01DX009 (ip), vehicle: saline 97 % of control

[O-]/[N+](=C\c1ccccc1)c1ccccc1
inactive: [3] 110 % of control | [4] 110 % of control | [5] 108 % of control

C=Cc1c[nH]c(=O)[nH]c1=O
inactive: [14] 94 % of control | [15] 94 % of control | [16] 102 % of control

Nc1nc(-c2ccccc2)[nH]c(=O)n1
inactive: [19] 100 % of control | [20] 91 % of control | [21] 93 % of control

O=C(O)/C=C/C(=O)c1ccccc1
inactive: dose: 50.0 mg/kg/injection, schedule: Q01DX001 (ip), vehicle: carboxymethylcellulose (CMC) 109 % of control

S=C(N/N=C1\C=Cc2ccccc2C1)N/N=C1\C=Cc2ccccc2C1
inactive: [4] 92 % of control | [5] 95 % of control | [6] 95 % of control

O=C(O)C(Cl)c1ccccc1 (stereo not drawn)
inactive: dose: 25.0 mg/kg/injection, schedule: Q01DX009 (ip), vehicle: gum acacia 114 % of control | dose: 50.0 mg/kg/injection, schedule: Q01DX009 (ip), vehicle: gum acacia 109 % of control | dose: 100.0 mg/kg/injection, schedule: Q01DX009 (ip), vehicle: gum acacia 106 % of control | [10] 92 % of control | [22] 95 % of control | [11] 93 % of control | [23] 101 % of control | [13] 97 % of control | [24] 88 % of control

N=C(CC(=O)Nc1ccccn1)c1ccccc1
inactive: [25] 100 % of control | [26] 107 % of control | dose: 400.0 mg/kg/injection, schedule: Q01DX001 (ip), vehicle: other 89 % of control

CC(O)CN1CCCCC1 (stereo not drawn)
inactive: [25] 98 % of control | [22] 96 % of control | [26] 98 % of control | [23] 96 % of control

CCCCC[n+]1cccc(C#N)c1
inactive: dose: 37.5 mg/kg/injection, schedule: Q04DX003 (ip), vehicle: saline 100 % of control | dose: 75.0 mg/kg/injection, schedule: Q01DX001 (ip), vehicle: saline 96 % of control | dose: 75.0 mg/kg/injection, schedule: Q04DX003 (ip), vehicle: saline 91 % of control | dose: 150.0 mg/kg/injection, schedule: Q01DX001 (ip), vehicle: saline 100 % of control | dose: 150.0 mg/kg/injection, schedule: Q04DX003 (ip), vehicle: saline 100 % of control

O=C(Nc1cccc(Cl)c1)Nc1cccc(Br)c1
inactive: [16] 96 % of control | [17] 88 % of control | [18] 118 % of control

CCOC(=O)NC(C)NC(=O)OCC
inactive: [4] 107 % of control | [5] 101 % of control | [6] 97 % of control

Cc1cnc2nc(N)[nH]c(=O)c2c1
inactive: [27] 98 % of control | [28] 95 % of control | [29] 95 % of control

CC(=O)Oc1c2n(c(=O)c3cocc13)Cc1cc3ccccc3nc1-2
inactive: [1] 92 % of control | [2] 94 % of control | [12] 90 % of control

COc1cc(CCCC(=O)O)c(OC)c(C)c1C
inactive: [1] 93 % of control | [19] 97 % of control | [2] 98 % of control | [20] 103 % of control | [12] 95 % of control | [21] 101 % of control

CSc1ccc(NC(=S)NCCc2ccccc2)cc1
inactive: [19] 114 % of control | [20] 97 % of control | [21] 102 % of control

CCOC1Cc2ccccc21 (stereo not drawn)
inactive: [22] 95 % of control | [23] 96 % of control | [24] 98 % of control

CCCCCC(C(C)=O)(C1=NC(C)(C)CC(C)O1)c1ccccc1 (stereo not drawn)
inactive: [27] 103 % of control | [28] 120 % of control | [29] 111 % of control

COC(=O)C(C)C(O)c1ccc(C)cc1 (stereo not drawn)
inactive: dose: 50.0 mg/kg/injection, schedule: Q01DX009 (ip), vehicle: saline with Tween-80 93 % of control | dose: 100.0 mg/kg/injection, schedule: Q01DX009 (ip), vehicle: saline with Tween-80 93 % of control | dose: 200.0 mg/kg/injection, schedule: Q01DX009 (ip), vehicle: saline with Tween-80 93 % of control

CCCCCCCCCCCCNC(C1=C(O)c2ccccc2C(=O)C1=O)c1ccccc1 (stereo not drawn)
inactive: [7] 95 % of control | [8] 88 % of control | [9] 95 % of control
